In one assay the test system is AKT protein phosphorylated on serine 473 (P-AKT-S473) in PC3 human prostate carcinoma cells. The assay can be described thus: pAKT expression in PC3 human prostate carcinoma cells, MSD Multi-spot Biomarker detection (Test A). The class given is cell-based. The following applies: Homo sapiens, PC-3, PC3 cells, 1 to 2 h incubation, P-AKT-S473, absolute IC50, mean of two independent experiments. An outline of the steps:
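Lysate pAKT-S473 measured by electrochemiluminescent sandwich immunoassay; inhibition versus cell-free background and DMSO-only wells, IC50 averaged over two experiments.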
Usually IC50 stands for the concentration needed to halve the response being measured. A higher IC50 goes with weaker potency in that assay. The molecule `CC1Cc2cc(F)ccc2N1C(=O)Cc1nc(N2CCOCC2)c(F)c(=O)n1C` (stereo not drawn) [Example 14a, 5-fluoro-2-[2-((−)-5-fluoro-2-methyl-2,3-dihydroindol-1-yl)-2-oxoethyl]-3-methyl-6-morpholin-4-yl-3H-pyrimidin-4-one] gave an IC50 of 55 nM.
`O=C(Cc1nc(N2CCOCC2)cc(=O)[nH]1)N1CCc2c(-c3ccccc3Cl)cccc21` [Example 14d, 2-{2-[4-(2-chlorophenyl)-2,3-dihydro-1H-indol-1-yl]-2-oxoethyl}-6-(morpholin-4-yl)pyrimidin-4(3H)-one] registered an IC50 of 42 nM.
`O=C(Cc1nc(N2CCOCC2)cc(=O)n1C1CC1)N1CCc2c(Cl)cccc21` [Example 15d, 2-[2-(4-chloro-2,3-dihydro-1H-indol-1-yl)-2-oxoethyl]-3-cyclopropyl-6-(morpholin-4-yl)pyrimidin-4(3H)-one]: half-maximal inhibition (IC50) required 37 nM.
`O=C(Cc1nc(N2CCOCC2)cc(=O)[nH]1)N1c2ccccc2C2CCCC21` (stereo not drawn) [Example 16d, 6-(morpholin-4-yl)-2-[2-oxo-2-(2,3,3a,8b-tetrahydrocyclopenta[b]indol-4(1H)-yl)ethyl]pyrimidin-4(3H)-one] came in with a half-inhibitory concentration (IC50) of 30 nM.
For the molecule `CS(=O)(=O)N1CCN(Cc2cccc3c2CCN3C(=O)Cc2nc(N3CCOCC3)cc(=O)[nH]2)CC1` [Example 17d, 2-[2-(4-{[4-(methylsulfonyl)piperazin-1-yl]methyl}-2,3-dihydro-1H-indol-1-yl)-2-oxoethyl]-6-(morpholin-4-yl)pyrimidin-4(3H)-one], the 50% inhibitory concentration (IC50) came out at 259 nM.
As to `CC1Cc2c(Cl)cccc2N1C(=O)Cc1nc(N2CCOCC2)c(F)c(=O)[nH]1` (stereo not drawn) [Example 18a, 5-fluoro-2-[2-((+)-4-chloro-2-methyl-2,3-dihydroindol-1-yl)-2-oxoethyl]-6-morpholin-4-yl-3H-pyrimidin-4-one], the IC50 came to 38 nM.
On the same count and under the same terms, the value for `[2H]C1([2H])COCC([2H])([2H])N1c1cc(=O)[nH]c(CC(=O)N2CC(C)(C)c3ccccc32)n1` [Example 18b, 2-[2-(3,3-dimethyl-2,3-dihydroindol-1-yl)-2-oxoethyl]-6-morpholin(D4)-4-yl-3H-pyrimidin-4-one] was 91 nM.
`CN1CCN(Cc2cccc3c2CCN3C(=O)Cc2nc(N3CCOCC3)cc(=O)[nH]2)CC1` [Example 18d, 2-(2-{4-[(4-methylpiperazin-1-yl)methyl]-2,3-dihydro-1H-indol-1-yl}-2-oxoethyl)-6-(morpholin-4-yl)pyrimidin-4(3H)-one] showed an IC50 of 272 nM.
On to `O=C(Cc1nc(N2CCOCC2)cc(=O)[nH]1)N1CCc2c(-c3ccccc3F)cccc21` [Example 19d, 2-{2-[4-(2-fluorophenyl)-2,3-dihydro-1H-indol-1-yl]-2-oxoethyl}-6-(morpholin-4-yl)pyrimidin-4(3H)-one], for which the IC50 came to 23 nM.
On the same count and under the same terms, under `CN1CCN(Cc2cccc3c2CCN3C(=O)Cc2nc(N3CCOCC3)cc(=O)n2C)CC1` [Example 20d, 3-methyl-2-(2-{4[(4-methylpiperazin-1-yl)methyl]-2,3-dihydro-1H-indol-1-yl}-2-oxoethyl)-6-(morpholin-4-yl)pyrimidin-4(3H)-one] stands 520 nM.
Molecule `O=C(Cc1nc(N2CCOCC2)cc(=O)[nH]1)N1CC2(CCOCC2)c2ccccc21` [Example 21d, 6-(morpholin-4-yl)-2-[2-oxo-2-(2′,3′,5′,6′-tetrahydrospiro[indole-3,4′-pyran]-1(2H)-yl)ethyl]pyrimidin-4(3H)-one] came in with an IC50 of 155 nM.
The same measure, in the same setting: under `Cn1c(CC(=O)N2CC3(CCOCC3)c3ccccc32)nc(N2CCOCC2)cc1=O` [Example 22d, 3-methyl-6-(morpholin-4-yl)-2-[2-oxo-2-(2′,3′,5′,6′-tetrahydrospiro[indole-3,4′-pyran]-1(2H)-yl)ethyl]pyrimidin-4(3H)-one] stands 106 nM; under `Cc1cc(-c2cc(=O)[nH]c(CC(=O)N3CCc4c(F)cccc43)n2)ccn1` [Example 23b, 2-[2-(4-fluoro-2,3-dihydroindol-1-yl)-2-oxoethyl]-6-(2-methylpyridin-4-yl)-3H-pyrimidin-4-one], 244 nM; under `Cn1c(CC(=O)N2CC3(CCNCC3)c3ccccc32)nc(N2CCOCC2)cc1=O` [Example 23d, 3-methyl-6-(morpholin-4-yl)-2-[2-oxo-2-(spiro[indole-3,4′-piperidin]-1(2H)-yl)ethyl]pyrimidin-4(3H)-one], 196 nM.
In turn, `O=C(Cc1nc(-c2ccnc(F)c2)cc(=O)[nH]1)N1CCc2c(F)cccc21` [Example 24b, 2-[2-(4-Fluoro-2,3-dihydroindol-1-yl)-2-oxoethyl]-6-(2-fluoropyridin-4-yl)-3H-pyrimidin-4-one] showed an IC50 of 2860 nM.
`CC1Cc2cc(F)c(F)cc2N1C(=O)Cc1nc(N2CCOCC2)c(F)c(=O)n1C` (stereo not drawn) [Example 26a, 5-fluoro-2-[2-((+)-5,6-difluoro-2-methyl-2,3-dihydroindol-1-yl)-2-oxoethyl]-3-methyl-6-morpholin-4-yl-3H-pyrimidin-4-one] showed an IC50 of 211 nM.
On the same count and under the same terms, the value for `CN1CCN(c2cccc3c2CCN3C(=O)Cc2nc(N3CCOCC3)cc(=O)[nH]2)CC1` [Example 26d, 2-{2-[4-(4-methylpiperazin-1-yl)-2,3-dihydro-1H-indol-1-yl]-2-oxoethyl}-6-(morpholin-4-yl)pyrimidin-4(3H)-one] was 167 nM.

The assay is the same for the next values; noted with them: PC3 cells, 1 to 2 h incubation, P-AKT-S473, absolute IC50, mean of two independent experiments.
Molecule `CC1Cc2cc(F)ccc2N1C(=O)Cc1nc(N2CCOCC2)c(F)c(=O)n1C` (stereo not drawn) [Example 15a, 5-fluoro-2-[2-((+)-5-fluoro-2-methyl-2,3-dihydroindol-1-yl)-2-oxoethyl]-3-methyl-6-morpholin-4-yl-3H-pyrimidin-4-one] gave a half-inhibitory concentration (IC50) of 65 nM.
For the molecule `CC1Cc2c(Cl)cccc2N1C(=O)Cc1nc(N2CCOCC2)c(F)c(=O)[nH]1` (stereo not drawn) [Example 19a], the 50% inhibitory concentration (IC50) came to 19 nM.
The same measure, in the same setting: under `C[C@H]1Cc2ccccc2N1C(=O)Cc1nc(N2CCOCC2)cc(=O)[nH]1` [Example 19b, (+)-2-[2-(2-methyl-2,3-dihydroindol-1-yl)-2-oxoethyl]-6-morpholin(D4)-4-yl-3H-pyrimidin-4-one] stands 16 nM.
For the molecule `CC1Cc2c(ccc(F)c2F)N1C(=O)Cc1nc(N2CCOCC2)c(F)c(=O)[nH]1` (stereo not drawn) [Example 20a, 2-[2-((−)-4,5-difluoro-2-methyl-2,3-dihydroindol-1-yl)-2-oxoethyl]-5-fluoro-6-morpholin-4-yl-3H-pyrimidin-4-one], half-maximal inhibition (IC50) was put at 2 nM.
In turn, `C[C@@H]1Cc2ccccc2N1C(=O)Cc1nc(N2CCOCC2)cc(=O)[nH]1` [Example 20b, (−)-2-[2-(2-methyl-2,3-dihydroindol-1-yl)-2-oxoethyl]-6-(2,2,6,6-morpholin-D4)-4-yl-3H-pyrimidin-4-one] displayed a half-inhibitory concentration (IC50) of 5 nM.
Consider `CC1Cc2c(ccc(F)c2F)N1C(=O)Cc1nc(N2CCOCC2)c(F)c(=O)[nH]1` (stereo not drawn) [Example 21a, 2-[2-((+)-4,5-difluoro-2-methyl-2,3-dihydroindol-1-yl)-2-oxoethyl]-5-fluoro-6-morpholin-4-yl-3H-pyrimidin-4-one], for which the half-maximal inhibitory concentration (IC50) was 15 nM.
In the case of `CC1Cc2cc(F)c(F)cc2N1C(=O)Cc1nc(N2CCOCC2)cc(=O)[nH]1` (stereo not drawn) [Example 21c, 2-{2-[(+)-5,6-difluoro-2-methyl-2,3-dihydro-1H-indol-1-yl]-2-oxoethyl}-6-(morpholin-4-yl)pyrimidin-4(3H)-one], the concentration for half-maximal inhibition (IC50) turned out to be 17 nM. The IC50 values of the last two molecules are within 1.5-fold of each other.
`CC1Cc2c(F)cccc2N1C(=O)Cc1nc(N2CCOCC2)c(F)c(=O)n1C` (stereo not drawn) [Example 22a, 5-fluoro-2-[2-((+)-4-fluoro-2-methyl-2,3-dihydroindol-1-yl)-2-oxoethyl]-3-methyl-6-morpholin-4-yl-3H-pyrimidin-4-one] came in with a half-inhibitory concentration (IC50) of 98 nM.
`CC1Cc2cc(F)c(F)cc2N1C(=O)Cc1nc(N2CCOCC2)cc(=O)[nH]1` (stereo not drawn) [Example 22c] yielded an IC50 of 2 nM.
In the case of `CC1Cc2c(F)cccc2N1C(=O)Cc1nc(N2CCOCC2)c(F)c(=O)n1C` (stereo not drawn) [Example 23a, 5-fluoro-2-[2-((−)-4-fluoro-2-methyl-2,3-dihydroindol-1-yl)-2-oxoethyl]-3-methyl-6-morpholin-4-yl-3H-pyrimidin-4-one], half-maximal inhibition (IC50) was put at 203 nM.
`CC1Cc2cc(F)c(F)cc2N1C(=O)Cc1nc(N2CCOCC2)cc(=O)n1C` (stereo not drawn) [Example 23c, 2-{2-[(−)-5,6-difluoro-2-methyl-2,3-dihydro-1H-indol-1-yl]-2-oxoethyl}-3-methyl-6-(morpholin-4-yl)pyrimidin-4(3H)-one] came in with an IC50 of 32 nM.
On to `CC1Cc2c(ccc(F)c2F)N1C(=O)Cc1nc(N2CCOCC2)c(F)c(=O)n1C` (stereo not drawn) [Example 24a, 5-fluoro-2-[2-((−)-4,5-difluoro-2-methyl-2,3-dihydroindol-1-yl)-2-oxoethyl]-3-methyl-6-morpholin-4-yl-3H-pyrimidin-4-one], for which the IC50 was 310 nM.
Molecule `CC1Cc2cc(F)c(F)cc2N1C(=O)Cc1nc(N2CCOCC2)cc(=O)n1C` (stereo not drawn) [Example 24c, 2-{2-[(+)-5,6-difluoro-2-methyl-2,3-dihydro-1H-indol-1-yl]-2-oxoethyl}-3-methyl-6-(morpholin-4-yl)pyrimidin-4(3H)-one] gave an IC50 of 114 nM.
In turn, `CC1Cc2c(ccc(F)c2F)N1C(=O)Cc1nc(N2CCOCC2)c(F)c(=O)n1C` (stereo not drawn) [Example 25a, 5-fluoro-2-[2-((+)-4,5-difluoro-2-methyl-2,3-dihydroindol-1-yl)-2-oxoethyl]-3-methyl-6-morpholin-4-yl-3H-pyrimidin-4-one] registered an IC50 of 98 nM.
Regarding `CC1Cc2cc(F)c(F)cc2N1C(=O)Cc1nc(N2CCOCC2)c(F)c(=O)n1C` (stereo not drawn) [Example 27a, 5-fluoro-2-[2-((−)-5,6-difluoro-2-methyl-2,3-dihydroindol-1-yl)-2-oxoethyl]-3-methyl-6-morpholin-4-yl-3H-pyrimidin-4-one], the midpoint of inhibition, the IC50, lay at 270 nM.
The molecule `CC1Cc2c(Cl)cccc2N1C(=O)Cc1nc(N2CCOCC2)c(F)c(=O)n1C` (stereo not drawn) [Example 28a, 5-fluoro-2-[2-((+)-4-chloro-2-methyl-2,3-dihydroindol-1-yl)-2-oxoethyl]-3-methyl-6-morpholin-4-yl-3H-pyrimidin-4-one] returned an IC50 of 476 nM.

For the origin of these results see patent US9133168B2, “Pyrimidine derivatives, preparation thereof, and pharmaceutical use thereof as akt(pkb) phosphorylation inhibitors” (SANOFI, priority 2010, dated 2015).
